Experimental data published in ChEMBL document CHEMBL5465560, “Selectivity Literature for EUbOPEN Chemogenomic Library” (2024).
Values belong to the compound of their own block, whether it stands above or below them.

Tests used:
[1] = target: T1, Dual specificity mitogen-activated protein kinase kinase 3 (Homo sapiens) (UniProt P46734); experiment: Selectivity interaction (KinomeScan (DiscoverX)) EUB0000607a MAP2K3; conditions: at 10 µM
T1 sequence (whole entry): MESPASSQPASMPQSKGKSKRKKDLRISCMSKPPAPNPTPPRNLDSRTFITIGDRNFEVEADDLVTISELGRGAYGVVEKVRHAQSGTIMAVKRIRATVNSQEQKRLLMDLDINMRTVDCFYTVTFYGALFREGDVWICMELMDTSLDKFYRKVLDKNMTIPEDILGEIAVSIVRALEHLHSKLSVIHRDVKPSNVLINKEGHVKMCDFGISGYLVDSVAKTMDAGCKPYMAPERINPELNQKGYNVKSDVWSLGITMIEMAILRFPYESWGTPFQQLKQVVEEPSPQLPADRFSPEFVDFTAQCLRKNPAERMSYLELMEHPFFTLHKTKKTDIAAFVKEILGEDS

[2] = target: Dual specificity tyrosine-phosphorylation-regulated kinase 1B (Homo sapiens, UniProt Q9Y463); experiment: Selectivity interaction (KinomeScan (DiscoverX)) EUB0000595a DYRK1B; conditions: at 10 µM
Sequence of Dual specificity tyrosine-phosphorylation-regulated kinase 1B (Q9Y463 whole entry, looked up): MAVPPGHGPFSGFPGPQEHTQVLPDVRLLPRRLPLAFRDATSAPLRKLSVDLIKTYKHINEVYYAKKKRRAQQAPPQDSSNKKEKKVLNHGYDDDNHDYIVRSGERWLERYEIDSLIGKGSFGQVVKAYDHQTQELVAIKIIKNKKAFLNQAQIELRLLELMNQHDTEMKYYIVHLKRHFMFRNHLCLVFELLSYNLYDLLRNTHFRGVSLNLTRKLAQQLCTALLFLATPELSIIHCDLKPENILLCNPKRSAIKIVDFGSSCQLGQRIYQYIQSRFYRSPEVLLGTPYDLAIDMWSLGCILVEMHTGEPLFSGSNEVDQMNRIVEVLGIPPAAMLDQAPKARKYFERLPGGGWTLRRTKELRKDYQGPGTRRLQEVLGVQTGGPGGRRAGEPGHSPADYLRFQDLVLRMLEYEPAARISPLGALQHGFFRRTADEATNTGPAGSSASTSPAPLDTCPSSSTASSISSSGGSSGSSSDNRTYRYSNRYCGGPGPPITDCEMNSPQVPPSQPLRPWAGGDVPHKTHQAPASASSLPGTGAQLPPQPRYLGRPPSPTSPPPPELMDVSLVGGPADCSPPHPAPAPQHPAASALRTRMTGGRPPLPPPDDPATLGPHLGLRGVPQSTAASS

[3] = target: T2, Ephrin type-A receptor 8 (Homo sapiens) (UniProt P29322); experiment: Selectivity interaction (Upstate Kinase Profiler service (Millipore)) EUB0000056c EPHA8; conditions: at 1 µM
T2 sequence (whole entry): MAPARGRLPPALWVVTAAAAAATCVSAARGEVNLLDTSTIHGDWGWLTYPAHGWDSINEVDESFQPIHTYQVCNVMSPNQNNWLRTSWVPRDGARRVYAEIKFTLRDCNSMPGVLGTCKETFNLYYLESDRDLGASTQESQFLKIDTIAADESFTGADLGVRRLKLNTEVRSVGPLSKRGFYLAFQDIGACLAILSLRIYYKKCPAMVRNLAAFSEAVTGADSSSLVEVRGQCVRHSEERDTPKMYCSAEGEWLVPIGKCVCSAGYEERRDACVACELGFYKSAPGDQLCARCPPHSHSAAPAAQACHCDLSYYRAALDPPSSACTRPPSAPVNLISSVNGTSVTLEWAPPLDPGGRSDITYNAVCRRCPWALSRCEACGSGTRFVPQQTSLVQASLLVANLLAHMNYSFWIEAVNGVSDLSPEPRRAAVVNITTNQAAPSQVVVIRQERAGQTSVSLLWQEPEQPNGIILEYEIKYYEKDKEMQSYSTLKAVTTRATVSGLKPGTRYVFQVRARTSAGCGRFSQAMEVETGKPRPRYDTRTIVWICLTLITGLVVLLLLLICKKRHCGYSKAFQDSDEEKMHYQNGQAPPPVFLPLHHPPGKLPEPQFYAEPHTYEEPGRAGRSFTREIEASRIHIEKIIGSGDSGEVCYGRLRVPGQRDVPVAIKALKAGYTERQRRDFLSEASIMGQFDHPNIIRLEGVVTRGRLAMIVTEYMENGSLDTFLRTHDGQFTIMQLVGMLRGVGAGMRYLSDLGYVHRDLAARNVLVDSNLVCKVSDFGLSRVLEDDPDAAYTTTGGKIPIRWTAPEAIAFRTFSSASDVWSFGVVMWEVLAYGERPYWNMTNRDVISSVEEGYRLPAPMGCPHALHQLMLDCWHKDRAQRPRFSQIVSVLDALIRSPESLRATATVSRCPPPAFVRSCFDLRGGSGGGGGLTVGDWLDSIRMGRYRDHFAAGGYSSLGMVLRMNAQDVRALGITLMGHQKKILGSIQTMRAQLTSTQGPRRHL

[4] = target: T3, Serine/threonine-protein kinase TAO2 (Homo sapiens) (UniProt Q9UL54); experiment: Selectivity interaction (Kinase panel (KiNativ target engagement assay in Jurkat cells)) EUB0001635a TAOK2; format: cell-based; conditions: Selectivity number of off-targets 0.0, Selectivity number of targets 233.0, Source Knowledge https://www.sciencedirect.com/science/article/pii/S2451945619300674?via%3Dihub, at 1 µM
T3 sequence (whole entry): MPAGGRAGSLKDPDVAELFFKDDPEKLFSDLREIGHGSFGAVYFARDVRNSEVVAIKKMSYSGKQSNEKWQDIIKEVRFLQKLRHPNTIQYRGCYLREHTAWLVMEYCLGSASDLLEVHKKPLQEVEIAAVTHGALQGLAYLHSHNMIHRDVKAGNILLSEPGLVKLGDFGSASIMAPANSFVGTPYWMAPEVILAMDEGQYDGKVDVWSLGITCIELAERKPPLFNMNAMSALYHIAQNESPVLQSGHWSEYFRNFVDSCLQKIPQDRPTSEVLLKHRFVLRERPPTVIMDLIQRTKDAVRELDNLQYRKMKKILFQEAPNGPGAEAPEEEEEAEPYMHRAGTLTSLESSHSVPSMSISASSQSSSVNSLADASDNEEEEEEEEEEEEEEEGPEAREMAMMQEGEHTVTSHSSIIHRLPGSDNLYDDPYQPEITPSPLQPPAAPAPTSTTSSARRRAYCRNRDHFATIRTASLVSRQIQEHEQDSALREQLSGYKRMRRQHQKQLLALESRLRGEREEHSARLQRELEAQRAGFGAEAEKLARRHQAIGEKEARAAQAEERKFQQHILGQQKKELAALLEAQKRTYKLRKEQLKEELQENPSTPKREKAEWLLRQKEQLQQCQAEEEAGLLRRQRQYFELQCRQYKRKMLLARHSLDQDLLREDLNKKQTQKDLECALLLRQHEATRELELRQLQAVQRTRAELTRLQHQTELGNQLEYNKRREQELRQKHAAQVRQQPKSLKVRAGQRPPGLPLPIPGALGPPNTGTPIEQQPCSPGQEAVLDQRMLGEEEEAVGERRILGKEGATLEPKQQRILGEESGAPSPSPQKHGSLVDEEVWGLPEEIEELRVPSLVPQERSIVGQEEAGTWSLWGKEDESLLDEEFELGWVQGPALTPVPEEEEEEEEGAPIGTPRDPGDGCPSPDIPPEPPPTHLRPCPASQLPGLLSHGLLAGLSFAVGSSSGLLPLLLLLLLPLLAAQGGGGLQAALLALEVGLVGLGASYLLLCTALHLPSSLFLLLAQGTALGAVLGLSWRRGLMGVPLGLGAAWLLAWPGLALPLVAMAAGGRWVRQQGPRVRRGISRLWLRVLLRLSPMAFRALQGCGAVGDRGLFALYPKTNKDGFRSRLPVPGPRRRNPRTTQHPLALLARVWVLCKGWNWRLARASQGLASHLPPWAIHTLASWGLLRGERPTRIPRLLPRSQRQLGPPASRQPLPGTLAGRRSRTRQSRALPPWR

[5] = target: Cyclin-dependent kinase 16 (Homo sapiens) (UniProt Q00536); experiment: Selectivity interaction (ActivX KiNativ screen (kinase selectivity in THP-1 cell lysates)) EUB0000639a CDK16; format: subcellular; conditions: lysate, at 1 µM
Sequence of Cyclin-dependent kinase 16 (Homo sapiens) (Q00536 whole entry): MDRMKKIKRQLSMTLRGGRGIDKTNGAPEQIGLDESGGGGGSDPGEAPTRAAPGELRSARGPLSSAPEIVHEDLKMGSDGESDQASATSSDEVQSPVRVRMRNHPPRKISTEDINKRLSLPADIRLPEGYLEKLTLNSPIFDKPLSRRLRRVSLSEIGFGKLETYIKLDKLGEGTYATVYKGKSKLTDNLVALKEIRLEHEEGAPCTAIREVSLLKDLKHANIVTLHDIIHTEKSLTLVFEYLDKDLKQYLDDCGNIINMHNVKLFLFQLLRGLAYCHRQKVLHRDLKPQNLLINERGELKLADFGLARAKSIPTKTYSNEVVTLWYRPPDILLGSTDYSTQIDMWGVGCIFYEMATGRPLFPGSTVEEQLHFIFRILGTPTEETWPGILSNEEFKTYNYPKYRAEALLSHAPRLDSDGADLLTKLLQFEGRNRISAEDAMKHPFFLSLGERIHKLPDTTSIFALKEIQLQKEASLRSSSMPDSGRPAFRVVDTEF

SMILES: CNC(=O)Nc1ccc(-c2nc(N3CC4CCC(C3)O4)c3cnn(C4CCC5(CC4)OCCO5)c3n2)cc1
- % of control [1]: 89%

SMILES: COCC(=O)NC/C=C/c1ccc2ncnc(Nc3ccc(Oc4ccc(C)nc4)c(C)c3)c2c1 [CP-724714]
- % of control [2]: 92%

- % of inhibition [3]: 1%
SMILES: Cc1ccc(-c2ccc3c(ccc4sc5c(c43)NC[C@@H](C)NC5=O)n2)cn1

SMILES: C=CC(=O)Nc1ccc(C(=O)Nc2[nH]nc3c2CN(C(=O)N[C@H](CN(C)C)c2ccccc2)C3(C)C)cc1
- % of engagement [4]: -12.9%

- % of inhibition [5]: 7.7%
SMILES: CC[C@@H]1[C@H](F)C(=O)N[C@@H]1COc1nccc2cc(C(N)=O)c(OC)cc12 [ZIMLOVISERTIB]
